We go through 5 compounds from patent publication US20160159861A1, “APJ Receptor Compounds” (priority 2013, published 2016).

What all share (assay type): cell-based
One data set has as its target CXCR4 receptor (Homo sapiens, UniProt P61073). The data set is described as follows: Activity at CXCR4 receptor (selectivity, Gi-coupled GPCR). The following applies: FIGS. 6A-6C, selectivity vs. hAPJ.
For data set [1], the target named is T1, human APJ receptor (hAPJ) (Homo sapiens, UniProt P35414).
T1 construct: expressed in transfected cells
T1 sequence (P35414 1-380): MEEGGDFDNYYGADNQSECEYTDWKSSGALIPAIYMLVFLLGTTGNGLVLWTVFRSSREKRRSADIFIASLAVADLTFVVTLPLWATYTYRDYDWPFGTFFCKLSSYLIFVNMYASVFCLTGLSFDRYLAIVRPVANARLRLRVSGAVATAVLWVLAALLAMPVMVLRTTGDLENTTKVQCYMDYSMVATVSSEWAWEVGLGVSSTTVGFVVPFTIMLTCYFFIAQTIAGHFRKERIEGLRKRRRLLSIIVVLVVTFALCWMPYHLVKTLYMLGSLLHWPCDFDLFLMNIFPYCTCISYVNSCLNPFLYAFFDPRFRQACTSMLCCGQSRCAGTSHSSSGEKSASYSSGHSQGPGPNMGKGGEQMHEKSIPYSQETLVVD
Put plainly: HTRF cAMP assay: inhibition of NKH477-stimulated cAMP in HEK cells stably expressing hAPJ. The following applies: for Emax: HEK293, read-out: % IA, bound stated; for % IA (cAMP inhibition, hAPJ HEK): intrinsic activity; for Ranking: composite class of EC50 (hAPJ), % IA and % histamine or formal (+) charge; for inhibition of NKH477-stimulated increase in cAMP, dose dependent: concentration response curves, FIGS. 1 and 2, HEK cells stably expressing APJ. Put shortly:
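HEK cells stably expressing hAPJ, induced with 1 nG/mL doxycycline and seeded overnight at 40 k/well. cAMP read by HTRF competitive immunoassay using cryptate-labeled anti-cAMP antibody and d2-labeled cAMP.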

In the next data set the test system is rat peritoneal cells. Put plainly: Ex vivo histamine release assay in rat peritoneal cells (vs. Compound 48/80). The method, boiled down:
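Resident peritoneal cells were lavaged from male Sprague Dawley rats and kept in HBSS/20 mM HEPES/0.2% BSA at 25,000 cells/well. They were exposed for 30 min at room temperature to compound at 3 points (100, 10, 1 μM DMSO stocks, 1% DMSO final). Released histamine was measured by HTRF and normalised to total histamine after Triton lysis. Compound 48/80 was the reference.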

Data set [2] addresses T2, APJ receptor (Homo sapiens, UniProt P35414).
T2 sequence (P35414 1-380): T1 sequence (P35414 1-380)
Put plainly: Cellul'erk ERK phosphorylation assay in APJ-TREX cells. Set-up: expressed in transfected cells; host or cells: Human TRex (APJ-TREX) cells, doxycycline-inducible expression. The following applies: relative to max pyr-apelin-13 activity at 100 nM; 3 or 0.3 μM compound, 5 minutes.
Experimental: Experiments were performed to test activation of the ERK and p38 pathways using the Cellul'erk and the Phospho-p38 MAPK (Thr180/Tyr182) assay kits (Cisbio). APJ-TREX cells were optimized for signaling (pre-serum starved overnight with low FBS serum (2% FBS media) with 1 ng/ml doxycyclin (for induction of APJ receptor expression), 50,000 cells, 5 minutes agonist activation for ERK activity). Cells were pretreated with 3 or 0.3 μM pepducin compound for 5 minutes and the reaction was stopped by lysis buffer. Lysates are then transferred to the assay plate for the detection of phosphorylated ERK or p38 by HTRF reagents.

Data set [3] has as its target T2, APJ receptor. Put plainly: DiscoveRx PathHunter β-arrestin recruitment assay. An excerpt:
Activation of the β-Arrestin signaling pathway was monitored using the commercially available DiscoveRx PathHunter® assay. This assay employs a homogenous, non-imaging assay format called Enzyme Fragment Complementation (EFC) using β-galactosidase (β-Gal) as the functional reporter. […] EA is fused to β-Arrestin and ED is fused to the GPCR of interest. When the GPCR is activated and β-Arrestin is recruited to the receptor, ED and EA complementation occurs, restoring βGal activity which is measured using chemiluminescent PathHunter® Detection Reagent.

[4] abbreviates: HTRF cAMP Assay, per data of Table 6.
Setting [5] is: HTRF cAMP Assay, per data of Table 6, read-out: EC50 (hAPJ), inhibition of cAMP production, bound stated.
Where [6] appears, read: Table 6, hAPJ HEK cells, NKH477-stimulated cAMP, read-out: EC50 (cAMP inhibition, hAPJ HEK).

Structures are written as SMILES. Where two headings read alike, the source gives them in different places. Peptide text beside a SMILES is read from it.

Sequence of CXCR4 receptor (P61073 whole entry): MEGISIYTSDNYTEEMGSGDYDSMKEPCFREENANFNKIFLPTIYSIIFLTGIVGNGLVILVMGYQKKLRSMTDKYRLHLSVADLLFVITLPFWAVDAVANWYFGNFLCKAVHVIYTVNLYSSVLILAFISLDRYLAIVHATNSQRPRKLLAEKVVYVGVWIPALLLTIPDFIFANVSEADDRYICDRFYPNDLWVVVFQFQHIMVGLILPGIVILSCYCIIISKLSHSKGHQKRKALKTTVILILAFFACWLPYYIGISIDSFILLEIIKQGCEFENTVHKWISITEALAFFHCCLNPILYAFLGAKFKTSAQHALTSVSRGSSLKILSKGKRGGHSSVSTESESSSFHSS

In the case of `CCCCCCCCCCCCCCCC(=O)N[C@@H](CC(=O)O)C(=O)N[C@H](C(=O)N[C@@H](Cc1ccccc1)C(=O)N[C@@H](CCC(N)=O)C(=O)N[C@@H](CO)C(=O)N[C@@H](CO)C(=O)N[C@@H](CCC(=O)O)C(=O)N[C@H](CCCCN)C(=O)N[C@@H](CCCNC(=N)N)C(=O)N[C@@H](CCCNC(=N)N)C(=O)N[C@@H](CO)C(=O)N[C@@H](C)C(=O)N[C@@H](CC(=O)O)C(=O)N[C@@H](CCC(N)=O)C(=O)N[C@@H](Cc1ccccc1)C(=O)N[C@H](C(N)=O)[C@@H](C)CC)C(C)C` [Compound 12] (HELM PEPTIDE1{[CCCCCCCCCCCCCCCC(=O)[*:2]].D.V.F.Q.S.S.E.[dK].R.R.S.A.D.Q.F.I.[am]}$$$$V2.0), the “activity at the CXCR4 receptor” value on CXCR4 receptor is “lack of dose-responsive activity”. Also, the Emax in data set [1] (setting [4]) was at least 80%. Further, the EC50 in data set [1] (setting [5]) is at most 25 nM. Also, the EC50 in data set [1] (setting [6]) was 12 nM. Further, in data set [1] (Table 6, hAPJ HEK cells), the “% IA (cAMP inhibition, hAPJ HEK)” value stood at 97%. Also, in data set [1], the Ranking entry was “***** (EC50≦25 nM (hAPJ), % IA≧80% and either % histamine≦35% or formal (+) charge≦1)”; the “inhibition of NKH477-stimulated increase in cAMP, dose dependent” value (“inhibition of NKH477-stimulated increase” for short) is given as “inhibited”. Besides, the “Histamine (% vs. 48/80)” value with rat peritoneal cells amounted to 9%. Besides, the “Average % Activity (ERK agonist activity)” value (“Average % Activity” below) on APJ receptor [2] turned out to be 51.8%.

On to `CCCCCCCCCCCCCCCC(=O)N[C@@H](CC(=O)O)C(=O)N[C@H](C(=O)N[C@@H](Cc1ccccc1)C(=O)N[C@@H](CCCNC(=N)N)C(=O)N[C@@H](CO)C(=O)N[C@@H](CO)C(=O)N[C@@H](CCC(=O)O)C(=O)N[C@H](CCCCN)C(=O)N[C@@H](CCCNC(=N)N)C(=O)N[C@@H](CCCNC(=N)N)C(=O)N[C@@H](CO)C(=O)N[C@@H](C)C(=O)N[C@@H](CC(=O)O)C(=O)N[C@@H](CCC(N)=O)C(=O)N[C@@H](Cc1ccccc1)C(=O)N[C@H](C(N)=O)[C@@H](C)CC)C(C)C` [Compound 13] (HELM PEPTIDE1{[CCCCCCCCCCCCCCCC(=O)[*:2]].D.V.F.R.S.S.E.[dK].R.R.S.A.D.Q.F.I.[am]}$$$$V2.0), for which the “activity at the CXCR4 receptor” value at CXCR4 receptor is “lack of dose-responsive activity”. In data set [1] (setting [4]), the Emax was at least 80%. Also, the EC50 in data set [1] (setting [5]) was at most 25 nM. The EC50 in data set [1] (setting [6]) amounted to 6 nM. Further, in data set [1] (Table 6, hAPJ HEK cells), the “% IA (cAMP inhibition, hAPJ HEK)” value turned out to be 96%. In addition, in data set [1], the Ranking result was “***** (EC50≦25 nM (hAPJ), % IA≧80% and either % histamine≦35% or formal (+) charge≦1)”; the “inhibition of NKH477-stimulated increase” value was “inhibited”. In the data set with rat peritoneal cells, the “Histamine (% vs. 48/80)” value was determined as 17%. On APJ receptor [2], the “Average % Activity” value stood at 44.0%.

In the case of `CCCCCCCCCCCCCCCC(=O)N[C@H](C(=O)N[C@H](C(=O)N[C@@H](Cc1ccccc1)C(=O)N[C@@H](CCCNC(=N)N)C(=O)N[C@@H](CO)C(=O)N[C@@H](CCC(=O)O)C(=O)N[C@H](CCCCN)C(=O)N[C@@H](CCCNC(=N)N)C(=O)N[C@@H](CCCNC(=N)N)C(=O)N[C@@H](CO)C(=O)N[C@@H](C)C(=O)N[C@@H](CC(=O)O)C(=O)N[C@@H](CCC(N)=O)C(=O)N[C@@H](Cc1ccccc1)C(=O)N[C@H](C(N)=O)[C@@H](C)CC)C(C)C)[C@@H](C)O` [Compound 14] (HELM PEPTIDE1{[CCCCCCCCCCCCCCCC(=O)[*:2]].T.V.F.R.S.E.[dK].R.R.S.A.D.Q.F.I.[am]}$$$$V2.0), the “activity at the CXCR4 receptor” value at CXCR4 receptor is listed as “lack of dose-responsive activity”. In addition, the Emax in data set [1] (setting [4]) was at least 80%. For the same compound, in data set [1] (setting [5]), the EC50 was at most 25 nM. In addition, in data set [1] (setting [6]), the 50% effective concentration (EC50) turned out to be 8 nM. In addition, the “% IA (cAMP inhibition, hAPJ HEK)” value in data set [1] (Table 6, hAPJ HEK cells) is on record as 87%. In addition, in data set [1], the Ranking entry is “**** (EC50≦25 nM (hAPJ), % IA≧80% and either % histamine>35% or formal (+) charge>1)”; the “inhibition of NKH477-stimulated increase” value was “inhibited”. Also, the “Average % Activity” value on APJ receptor [2] came out at 58.2%.

With `CCCCCCCCCCCCCCCC(=O)N[C@H](C(=O)N[C@H](C(=O)N[C@@H](Cc1ccccc1)C(=O)N[C@@H](CCCNC(=N)N)C(=O)N[C@@H](CO)C(=O)N[C@@H](CO)C(=O)N1CCC[C@H]1C(=O)N[C@@H](CCC(=O)O)C(=O)N[C@H](CCCCN)C(=O)N[C@@H](CCCNC(=N)N)C(=O)N[C@@H](CCCNC(=N)N)C(=O)N[C@@H](CO)C(=O)N[C@@H](C)C(=O)N[C@@H](CC(=O)O)C(=O)N[C@H](C(=O)N[C@@H](Cc1ccccc1)C(=O)N[C@H](C(N)=O)[C@@H](C)CC)[C@@H](C)CC)C(C)C)[C@@H](C)O` [Compound 25] (HELM PEPTIDE1{[CCCCCCCCCCCCCCCC(=O)[*:2]].T.V.F.R.S.S.P.E.[dK].R.R.S.A.D.I.F.I.[am]}$$$$V2.0), the 50% effective concentration (EC50) is 3.1 nM at APJ receptor [3]; 15 nM in data set [1] (EC50 (cAMP inhibition, hAPJ HEK), Table 6, hAPJ HEK cells, NKH477-stimulated cAMP); at most 25 nM in data set [1] (EC50 (hAPJ), inhibition of cAMP production, bound stated, HTRF cAMP Assay, per data of Table 6). Also, the “β-arrestin recruitment” value on APJ receptor [3] (dose dependent chemiluminescence, FIGS. 3A-3B) was “weakly engaged”. In addition, the Emax was 12.6% on APJ receptor [3] (read-out: β-arrestin Signaling Max Response) and at least 80% in data set [1] (setting [4]). For the same compound, in data set [1] (Table 6, hAPJ HEK cells), the “% IA (cAMP inhibition, hAPJ HEK)” value is 138%. Further, in data set [1], the Ranking result was “**** (EC50≦25 nM (hAPJ), % IA≧80% and either % histamine>35% or formal (+) charge>1)”. In data set [1], the “inhibition of NKH477-stimulated increase” value is given as “inhibited”. Also, the “Histamine (% vs. 48/80)” value with rat peritoneal cells (histamine release from rat peritoneal cells relative to Compound 48/80) was determined as 51%. For the same compound, on APJ receptor [2], the “Average % Activity” value was 25.5%.

For the compound `CCCCCCCCCCCCCCCC(=O)N[C@H](C(=O)N[C@H](C(=O)N[C@@H](Cc1ccccc1)C(=O)N[C@@H](CCCNC(=N)N)C(=O)N[C@@H](CO)C(=O)N[C@@H](CO)C(=O)N[C@@H](CCC(=O)O)C(=O)N1CCC[C@H]1C(=O)N[C@H](CCCCN)C(=O)N[C@@H](CCCNC(=N)N)C(=O)N[C@@H](CCCNC(=N)N)C(=O)N[C@@H](CO)C(=O)N[C@@H](C)C(=O)N[C@@H](CC(=O)O)C(=O)N[C@H](C(=O)N[C@@H](Cc1ccccc1)C(=O)N1CCC[C@H]1C(N)=O)[C@@H](C)CC)C(C)C)[C@@H](C)O` [Compound 28] (HELM PEPTIDE1{[CCCCCCCCCCCCCCCC(=O)[*:2]].T.V.F.R.S.S.E.P.[dK].R.R.S.A.D.I.F.P.[am]}$$$$V2.0), the “activity at the CXCR4 receptor” value at CXCR4 receptor is on record as “lack of dose-responsive activity”. Besides, the Emax in data set [1] (setting [4]) was at least 80%. In addition, the EC50 in data set [1] (setting [5]) is at most 25 nM; in data set [1] (setting [6]), 17 nM. In data set [1] (Table 6, hAPJ HEK cells), the “% IA (cAMP inhibition, hAPJ HEK)” value came out at 99%. The Ranking result in data set [1] was “**** (EC50≦25 nM (hAPJ), % IA≧80% and either % histamine>35% or formal (+) charge>1)”. Further, the “Average % Activity” value at APJ receptor [2] came to 34.7%.
